Laboratory results taken from patent US7470678B2, “Diphenylazetidinone derivatives for treating disorders of the lipid metabolism” (AstraZeneca AB, priority 2002, dated 2008).

Columns and labels:
Caco-2 cells = test: Absorption in a Caco-2 cells model; assay type: in vitro ADME
Method: (§1) The absorption of the compounds of formula (I) was tested in a Caco-2 cells model (Gastroenterology 1989, 96, 736).

[1] = Absorption in a Caco-2 cells model; assay type: in vitro ADME; conditions: human, read-out: Apparent partition coefficient, Papp
Method: as §1

| SMILES | Apparent partition coefficient; Papp [cm/s] (Caco-2 cells) | absorption compared with ezetimibe (Caco-2 cells; compared with ezetimibe) | Papp [1] |
| --- | --- | --- | --- |
| O=C(O)CNC(=O)COc1ccc(C2C(SCC(O)c3ccc(F)cc3)C(=O)N2c2ccccc2)cc1 [Example 24, 3-(R)-4-(R)-1-(Phenyl)-3-[2-(4-fluorophenyl)-2-hydroxyethylsulphany[-4-{4-[N-(carboxymethyl)carbamoylmethoxy]phenyl}azetidin-2-one] | 0.24 × 10^−06 cm/s | much lower absorption | – |
| O=C1[C@H](CC[C@H](O)c2ccc(F)cc2)[C@@H](c2ccc(O)cc2)N1c1ccc(F)cc1 [Ezetimibe, reference compound] | – | – | 21 ×10⁻⁶ cm/s |
